Laboratory results: patent publication US20110039873A1, “SUBSTITUTED PYRAZOLO[1,5-a] PYRIDINE COMPOUNDS HAVING MULTI-TARGET ACTIVITY” (priority 2009, published 2011)
Like-named read-outs stand apart in the source and are kept apart here.

What was measured:
[1] = biological target: T1, recombinant full length human JNK2 enzyme (Homo sapiens, UniProt P45984); experiment: JNK 2 inhibition assay (ATP depletion, luciferase); assay type: biochemical
T1 construct: recombinant full length human JNK2 or JNK3 enzyme; purchased Upstate; host or cells: Sf21 cells
T1 sequence (P45984 whole entry): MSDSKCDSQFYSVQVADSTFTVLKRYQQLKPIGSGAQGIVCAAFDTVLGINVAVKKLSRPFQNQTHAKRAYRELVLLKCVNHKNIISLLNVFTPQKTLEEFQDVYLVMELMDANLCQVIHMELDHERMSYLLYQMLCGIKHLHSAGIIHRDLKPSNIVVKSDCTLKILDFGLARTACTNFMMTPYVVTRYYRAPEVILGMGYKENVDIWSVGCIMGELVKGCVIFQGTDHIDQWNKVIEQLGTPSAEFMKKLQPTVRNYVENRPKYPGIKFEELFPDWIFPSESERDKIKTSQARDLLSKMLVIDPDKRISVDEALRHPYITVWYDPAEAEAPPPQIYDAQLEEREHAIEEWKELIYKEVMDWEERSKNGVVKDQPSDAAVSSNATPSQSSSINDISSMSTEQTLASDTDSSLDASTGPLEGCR
Protocol: In a 96-well plate, recombinant full length human JNK2 or JNK3 enzyme (40 ng) expressed in Sf21 cells (Upstate) was incubated with the substrate ATF2 (3 uM) for 1 hour in the presence of 10 uM ATP. […] IC50 calculations were plotted using a nonlinear regression curve fit.

[2] = biological target: T2, recombinant full length human JNK3 enzyme (Homo sapiens, UniProt P53779); experiment: JNK 3 inhibition assay (ATP depletion, luciferase); assay type: biochemical; settings: for IC50: 10 uM ATP, ATF2 substrate; for JNK-3 inhibition (in words): see Table 2
T2 construct: recombinant full length human JNK2 or JNK3 enzyme; purchased Upstate; host or cells: Sf21 cells
T2 sequence (P53779 whole entry): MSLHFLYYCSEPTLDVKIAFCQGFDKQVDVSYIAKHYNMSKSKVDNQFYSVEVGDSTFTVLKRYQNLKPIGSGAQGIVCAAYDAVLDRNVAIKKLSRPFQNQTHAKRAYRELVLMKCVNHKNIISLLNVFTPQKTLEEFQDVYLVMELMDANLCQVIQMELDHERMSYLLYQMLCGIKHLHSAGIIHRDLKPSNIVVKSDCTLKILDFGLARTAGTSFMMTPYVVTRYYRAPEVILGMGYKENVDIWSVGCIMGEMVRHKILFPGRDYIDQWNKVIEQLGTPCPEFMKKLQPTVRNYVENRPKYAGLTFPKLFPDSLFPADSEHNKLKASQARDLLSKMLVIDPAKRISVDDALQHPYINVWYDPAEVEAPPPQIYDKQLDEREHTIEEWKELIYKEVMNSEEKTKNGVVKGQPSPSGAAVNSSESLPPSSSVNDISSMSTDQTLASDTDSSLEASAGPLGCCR
Protocol: In a 96-well plate, recombinant full length human JNK2 or JNK3 enzyme (40 ng) expressed in Sf21 cells (Upstate) was incubated with the substrate ATF2 (3 uM) for 1 hour in the presence of 10 uM ATP. […] The ATP levels were quantified using luciferase with luminescence read on a Victor Light 1420 luminometer. IC50 calculations were plotted using a nonlinear regression curve fit.

[3] = test system: rat chronic constriction injury (CCI) model of neuropathic pain; experiment: Rat chronic constriction injury (CCI) model of neuropathic pain; assay type: in vivo
[4] = test system: phosphorylated c-Jun (serine-73); experiment: Phosphorylated c-JUN (A-beta), E18 rat neuronal cells; assay type: cell-based; settings: Amyloid Beta peptide 30 uM, 3 hours, read-out: p-cJun Abeta E18 (EC50 in μM)
Protocol: (§1) In 96-well plates either human SH-SY5Y neuroblastoma cells at 2.5×10^4 cells/well or E18 rat neuronal cells at 1.5×10^4 cells/well were seeded. To each well the following was added, Amyloid Beta peptide 1-25 (source) at a concentration of 30 uM, retinoic acid (10 uM) and test compounds (0-30 uM) and incubated for 3 hours. Supernatant was discarded and cells were fixed with 4% paraformaldehyde (100 ul/well) for 20 minutes. FACE cell based ELISA assay (Active Motif) was performed specific for quantifying phosphorlyated c-Jun (serine-73).

[5] = biological target: T3, recombinant human phosphodiesterase 10A1 enzyme (Homo sapiens, UniProt Q9Y233); experiment: PDE10 inhibition assay (PDELight); assay type: biochemical; settings: for IC50: 1 uM cAMP, read-out: PDE 10 Inhibition (IC50 in μM); for PDE-10 inhibition (in words): Table 2
T3 construct: purchased BPS Biosciences; host or cells: Baculovirus infected Sf9 cells
T3 sequence (Q9Y233 1-779 isoform Q9Y233-1): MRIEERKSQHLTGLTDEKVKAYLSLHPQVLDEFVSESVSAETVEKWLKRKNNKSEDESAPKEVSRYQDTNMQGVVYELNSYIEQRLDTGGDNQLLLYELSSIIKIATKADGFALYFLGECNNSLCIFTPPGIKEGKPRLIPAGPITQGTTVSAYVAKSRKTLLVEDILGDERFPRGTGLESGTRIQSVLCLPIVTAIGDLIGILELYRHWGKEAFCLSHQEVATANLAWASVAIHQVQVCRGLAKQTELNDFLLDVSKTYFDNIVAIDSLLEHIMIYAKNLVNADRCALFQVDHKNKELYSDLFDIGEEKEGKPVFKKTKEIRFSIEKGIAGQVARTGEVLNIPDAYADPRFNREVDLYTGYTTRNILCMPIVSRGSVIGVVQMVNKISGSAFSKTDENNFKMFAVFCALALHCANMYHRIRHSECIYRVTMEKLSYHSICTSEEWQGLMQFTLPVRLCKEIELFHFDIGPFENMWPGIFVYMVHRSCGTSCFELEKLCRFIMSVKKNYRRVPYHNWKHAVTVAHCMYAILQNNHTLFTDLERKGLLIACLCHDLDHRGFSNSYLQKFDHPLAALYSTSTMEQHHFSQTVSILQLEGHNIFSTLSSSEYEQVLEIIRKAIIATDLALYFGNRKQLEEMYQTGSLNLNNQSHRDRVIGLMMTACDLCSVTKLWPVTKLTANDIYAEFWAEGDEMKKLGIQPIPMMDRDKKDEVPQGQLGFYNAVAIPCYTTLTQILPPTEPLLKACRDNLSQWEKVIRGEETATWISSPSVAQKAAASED

[6] = test system: phosphorylated c-Jun (serine-73); experiment: Phosphorylated c-JUN (A-beta), SH-SY5Y; assay type: cell-based; settings: Homo sapiens, Amyloid Beta peptide 30 uM, 3 hours, read-out: p-cJun Abeta SH-SY5Y (EC50 in μM)
Protocol: as §1, with “To each well the following was added, Amyloid Beta peptide 1-25 (source) at a concentration of 30 uM, retinoic acid (10 uM) and test compounds (0-30 uM) and incubated for 3 hours.” left out

[7] = test system: phosphorylated c-Jun (serine-73); experiment: Phosphorylated c-JUN (6-OHDA), SH-SY5Y; assay type: cell-based; settings: Homo sapiens, 50 uM 6-hydroxydopamine, 1.5 hours, read-out: p-cJun 6-OHDA SH-SY5Y (EC50 in μM)
Protocol: Human SH-SY5Y neuroblastoma cells were cultured in 96-well plates with 2.5×10^4 cells/well and incubated for 48 hours. 6-hydroxydopamine was added at a concentration of 50 uM in the presence or absence of test compounds (0-30 uM) and incubated for 1.5 hours. Supernatant was discarded and cells were fixed with 4% paraformaldehyde (100 ul/well) for 20 minutes. FACE cell based ELISA assay (Active Motif) was performed specific for quantifying phosphorlyated c-Jun (serine-73).

[8] = biological target: T4, catalytic domain of phosphodiesterase 4B enzyme cloned from human brain (Homo sapiens, UniProt Q07343); experiment: PDE4 inhibition assay (PDELight); assay type: biochemical; settings: for IC50: 5 uM cAMP, read-out: PDE 4 Inhibition (IC50 in μM)
T4 construct: the catalytic domain of phosphodiesterase 4B enzyme; purchased Scottish Biomedical
T4 sequence (Q07343 330-659 limits assumed): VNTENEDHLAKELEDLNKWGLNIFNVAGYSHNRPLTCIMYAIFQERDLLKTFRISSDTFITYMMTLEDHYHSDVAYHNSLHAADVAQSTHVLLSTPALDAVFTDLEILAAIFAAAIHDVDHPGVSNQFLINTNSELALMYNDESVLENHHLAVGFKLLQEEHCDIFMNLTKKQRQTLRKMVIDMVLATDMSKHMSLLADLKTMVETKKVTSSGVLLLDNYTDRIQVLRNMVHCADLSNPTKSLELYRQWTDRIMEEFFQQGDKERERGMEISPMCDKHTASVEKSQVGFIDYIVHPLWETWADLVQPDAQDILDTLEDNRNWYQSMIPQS
How it was run: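 Human PDE4B catalytic domain (40 mU/well) incubated with 5 uM cAMP. AMP formed was converted to ATP and measured by luciferase luminescence (PDELight). IC50 derived by nonlinear regression curve fit.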

[9] = Oral pharmacokinetic evaluation; assay type: in vivo, rat; settings: Sprague-Dawley rats; for AUC(0-t) / Cmax / half-life: male, rat, plasma; for AUC(0-t): read-out: Oral PK AUClast; for Cmax: read-out: Oral PK Cmax; for half-life: Sprague-Dawley, po, 15 mg/kg
Protocol: Three male Sprague-Dawley rats were dosed orally via gavage with 15 mg/kg of test compound. Serial blood samples were collected from the jugular vein at 5, 15, and 30 min, 1, 3, and 6 hours post dosing. Samples were processed for plasma via centrifugation and plasma samples were stored frozen prior to analysis via a sensitive and specific HPLC/MS/MS method. PK parameters were calculated using WinNonLin (Pharsight).

[10] = test system: at least one of JNK 3 or JNK 2 and at least one of PDE 10 or PDE 4; experiment: Dual inhibition (phosphodiesterase and JNK); assay type: biochemical, human; settings: IC50 JNK 3 or JNK 2 less than about 5.00 μM and PDE 10 or PDE 4 less than about 20.0 or 30.0 μM
Protocol: In a 96-well plate, recombinant full length human JNK2 or JNK3 enzyme (40 ng) expressed in Sf21 cells (Upstate) was incubated with the substrate ATF2 (3 uM) for 1 hour in the presence of 10 uM ATP. The amount of ATP depletion by the JNK enzyme is measured in the presence or absence of test compounds (0-30 uM). The ATP levels were quantified using luciferase with luminescence read on a Victor Light 1420 luminometer. IC50 calculations were plotted using a nonlinear regression curve fit.
(§2) In a 96-well plate, the catalytic domain of phosphodiesterase 4B enzyme (40 mU/well) cloned from human brain (Scottish Biomedical) was combined with 5 uM cAMP substrate (Sigma). Test compounds (0-30 uM) or vehicle (0.5% DMSO) were added to the enzyme/substrate and incubated 1 hour. Using a PDELight® kit (Cambrex), the amount of AMP produced in the reaction from the hydrolysis of cAMP was quantified using PDELight AMP Detection Reagent which converts the AMP directly to ATP. The assay uses luciferase, which catalyses the formation of light from the newly formed ATP and luciferin. The luminescence was read on a Victor Light 1420 luminometer. IC50 calculations were plotted using a nonlinear regression curve fit.
as §2, with “plate, recombinant human” for “plate, the catalytic domain of”, “phosphodiesterase 10A1” for “phosphodiesterase 4B”, “enzyme (10 U/well) expressed in Baculovirus infected Sf9 cells (BPS Biosciences)” for “enzyme (40 mU/well) cloned from human brain (Scottish Biomedical)”, “with 1” for “with 5”

[11] = test system: Mouse BV-2 microglial cells; experiment: BV-2 glial cell assay (TNF-α and MCP-1 by Luminex); assay type: cell-based; settings: for EC50: Mus musculus, BV-2, LPS and IFN-γ activated, 20 hours; for inhibiting glial cell activation (TNF-α and/or MCP-1): Table 3
Protocol: Mouse BV-2 microglial cells were seeded on 96-well plates at a concentration of 3×10^4 cells/well. Cells were activated with 100 ng/mL LPS and IFN-γ (100 ng/mL) in the presence or absence of test compounds (0-30 uM). Following incubation for 20 hours, cells were spun down and supernatant collected. The supernatant was analyzed via Luminex for the presence of TNF-α and MCP-1.

Water solubility = assay type: physicochemical; settings: defined as at least 10 milligrams per milliliter in water at 25° C. and pH 7.0
Protocol: By “water soluble” is meant a compound that is soluble in water to an extent of at least 10 milligrams per milliliter in water at 25° C. and a pH 7.0.

[12] = read-out: IC50 value based upon a JNK 2 inhibition assay (range given)
[13] = dose not given, 50% paw withdrawal threshold, von Frey
[14] = 10 uM ATP, ATF2 substrate, read-out: JNK 2 Inhibition (IC50 in μM)
[15] = read-out: MCP-1 BV-2 (EC50 in μM)
[16] = read-out: TNF-a BV-2 (EC50 in μM)
[17] = 15 mg/kg oral gavage, read-out: Oral PK T½ (converted)

SMILES | IC50 [1, 12] [µM] | IC50 [2] [µM] | EC50 [4] [µM] | IC50 [5] [µM] | PDE-10 inhibition (in words) [5] | EC50 [6] [µM] | EC50 [7] [µM] | PDE-4 inhibition (in words) [8] | IC50 [8] [µM] | AUC(0-t) ([9]; 15 mg/kg oral gavage) [ng·h/mL] | Cmax ([9]; 15 mg/kg oral gavage) [ng/mL] | dual inhibition (phosphodiesterase and JNK) [10] | IC50 [1, 14] [µM] | EC50 [11, 15] [µM] | EC50 [11, 16] [µM] | JNK-3 inhibition (in words) [2] | IP CCI efficacy (Change in grams) [3, 13] [grams] | inhibiting glial cell activation (TNF-α and/or MCP-1) [11] | further results
CCCNc1nccc(-c2c(C(C)C)nn3ccccc23)n1 [AV1153, 4-(2-isopropylpyrazolo[1,5-a]pyridin-3-yl)-N-propylpyrimidin-2-amine] | 0.01 to 2 | 4.1 | 3.6 | 8.9 | particularly effective | > 30 | > 30 | particularly effective | 11.5 | 32 | 13 | effective dual inhibitors | – | – | – | – | 1.85 | – | –
CC(C)C(=O)c1c(C(C)C)nn2ccccc12 [AV411, 1-(2-isopropylpyrazolo[1,5-a]pyridin-3-yl)-2-methylpropan-1-one, reference compound] | – | > 100 | > 30 | 6.3 | – | 3.8 | > 30 | – | – | – | – | – | > 100 | 42 | 2.7 | – | – | – | –
c1ccn2nc(C3CC3)c(-c3ccnc(NC4CC4)n3)c2c1 [AV1200, N-cyclopropyl-4-(2-cyclopropylpyrazolo[1,5-a]pyridin-3-yl)pyrimidin-2-amine] | 0.01 to 2 | 1.9 | – | 7.7 | particularly effective | – | – | particularly effective | 2.7 | 1700 | 420 | effective dual inhibitors | 1.6 | 0.3 | 1 | particularly effective | – | Particularly effective | IP CCI efficacy (Change in grams) ([3]; 10 mg/kg): 0 (10 mg/kg); grams; IP CCI efficacy (Change in grams) ([3]; 20 mg/kg): 1.8 (20 mg/kg) grams; PO CCI efficacy (Change in grams) ([3]; 30 mg/kg): 0 (30 mg/kg); grams; PO CCI efficacy (Change in grams) ([3]; 60 mg/kg): 1.25 (60 mg/kg) grams; water soluble (Water solubility): water soluble; half life following oral dosing (in words) ([9]; oral): particularly prolonged half lives; half-life [9, 17]: 4.7 h; half-life ([9]; oral, read-out: half life following oral dosing): > 3 h
CC(C)c1nn2ccccc2c1-c1ccnc(NC2CCCC2)n1 [AV1154, N-cyclopentyl-4-(2-isopropylpyrazolo[1,5-a]pyridin-3-yl)pyrimidin-2-amine] | – | 6 | 13 | 3 | particularly effective | > 10 | 3.4 | particularly effective | 7.1 | – | – | effective dual inhibitors | – | – | – | – | 0 | – | –

Stronger by IC50 [2], values ahead:

IC50 [1, 12] [µM] | IC50 [2] [µM] | EC50 [4] [µM] | IC50 [5] [µM] | PDE-10 inhibition (in words) [5] | EC50 [6] [µM] | EC50 [7] [µM] | PDE-4 inhibition (in words) [8] | IC50 [8] [µM] | AUC(0-t) ([9]; 15 mg/kg oral gavage) [ng·h/mL] | Cmax ([9]; 15 mg/kg oral gavage) [ng/mL] | dual inhibition (phosphodiesterase and JNK) [10] | IC50 [1, 14] [µM] | EC50 [11, 15] [µM] | EC50 [11, 16] [µM] | JNK-3 inhibition (in words) [2] | SMILES | IP CCI efficacy (Change in grams) [3, 13] [grams] | inhibiting glial cell activation (TNF-α and/or MCP-1) [11] | further results
0.01 to 2 | 0.4 | 37 | 38.2 | particularly effective | 11 | 1.4 | – | 16.5 | – | – | effective dual inhibitors | 1.3 | 1.1 | 0.9 | particularly effective | CCCNc1nccc(-c2cnn3ccccc23)n1 [AV1166, N-propyl-4-(pyrazolo[1,5-a]pyridin-3-yl)pyrimidin-2-amine] | – | Particularly effective | –
– | 0.2 | 7.6 | – | – | – | 0.6 | – | – | – | – | – | – | – | – | – | Oc1c2ccccc2c2c3c(cccc13)N=N2 [SP600125, reference compound] | 0.5 | – | –
– | 0.2 | – | 35 | – | 5.4 | 0.3 | particularly effective | 6.2 | 35 | 56 | effective dual inhibitors | – | 1.2 | 1.1 | particularly effective | Cc1cccc2c(-c3ccnc(NC(C)C)n3)cnn12 [AV1183, N-isopropyl-4-(7-methylpyrazolo[1,5-a]pyridin-3-yl)pyrimidin-2-amine] | 0.3 | Particularly effective | half-life [9, 17]: 1.1 h
